Experimental findings from patent US20040106626A1, “6-Membered unsaturated heterocyclic compounds useful for selective inhibition of the coagulation cascade” (Pharmacia Corporation, priority 2001, published 2004) are described below.

The IC50 is the concentration at which inhibition is half-maximal.

Assay type in all cases: biochemical
Test [1] addresses T1, recombinant soluble tissue factor and recombinant human factor VIIa (TF-VIIa) (Homo sapiens, UniProt P08709).
T1 construct: conversion of coagulation factor VII to VIIa by factor Xa; purchased American Diagnostica, Greenwich CT; host or cells: soluble TF made in house in E. coli
Description: TF-VIIa assay (chromogenic substrate hydrolysis). The note with it: reported only as less than or greater than 0.1 uM. The protocol:
In this assay 100 nM recombinant soluble tissue factor and 2 nM recombinant human factor VIIa are added to a 96-well assay plate containing 0.4 mM of the substrate, N-methylsulfonyl-D-phe-gly-arg-p-nitroaniline and either inhibitor or buffer (5 mM CaCl2, 50 mM Tris-HCl, pH 8.0, 100 mM NaCl, 0.1% BSA). […] Percent inhibition of TF-VIIa activity is calculated from OD405 nm value from the experimental and control sample.
(§1) Recombinant human VIIa was purchased from American Diagnostica, Greenwich CT and chromogenic substrate N-methylsulfonyl-D-phe-gly-arg-p-nitroaniline was prepared by American Peptide Company, Inc., Sunnyvale, Calif. Factor Xa was obtained from Enzyme Research Laboratories, South Bend Ind., thrombin from Calbiochem, La Jolla, Calif., and trypsin and L-BAPNA from Sigma, St. Louis Mo.

Test [2] has as its target T2, Human factor Xa (Homo sapiens, UniProt P00742).
T2 construct: purchased Enzyme Research Laboratories, South Bend Ind
Description: Xa assay (chromogenic substrate S-2765). The note with it: reported only as less than or greater than 30 uM; read-out: Factor Xa (II) IC50. The protocol:
Human factor Xa (0.3 nM) and 0.15 mM -a-Benzyloxycarbonyl-D-arginyl-L-glycyl-L-arginine-p-nitroaniline-dihydrochloride (S-2765) are added to a 96-well assay plate containing either inhibitor or buffer (50 mM Tris-HCl, pH 8.0, 100 mM NaCl, 0.1% BSA). The reaction, in a final volume of 100 ul is measured immediately at 405 nm to determine background absorbance. The plate is incubated at room temperature for 60 min, at which time the rate of hydrolysis of the substrate is measured by monitoring the reaction at 405 nm for the release of p-nitroaniline. Percent inhibition of Xa activity is calculated from OD405 nm value from the experimental and control sample.
Recombinant soluble TF, consisting of amino acids 1-219 of the mature protein sequence was expressed in E. coli and purified using a Mono Q Sepharose FPLC. Recombinant human VIIa was purchased from American Diagnostica, Greenwich CT and chromogenic substrate N-methylsulfonyl-D-phe-gly-arg-p-nitroaniline was prepared by American Peptide Company, Inc., Sunnyvale, Calif. Factor Xa was obtained from Enzyme Research Laboratories, South Bend Ind., thrombin from Calbiochem, La Jolla, Calif., and trypsin and L-BAPNA from Sigma, St. Louis Mo. The chromogenic substrates S-2765 and S-2238 were purchased from Chromogenix, Sweden.

For test [3], the system named is Normal human pooled plasma. The test can be described thus: Prothrombin time (PT) clotting assay. The note with it: concentration at which prothrombin time is prolonged by 2x normal, reported as less than or greater than 50 uM. The protocol: The prothrombin time (PT) assay is a clotting assay that is used to determine deficiencies of clotting factor activity in the extrinsic pathway. The assay measures time to clotting after the addition of thromboplastin (human tissue factor). Normal human pooled plasma is incubated with 100 uM compound or saline in a coagulation machine. Thromboplastin is added and time to clotting is measured. Compounds with greater than 3×normal PT of 11.0 seconds are further analyzed by concentration response to determine at what concentration the prothrombin time is prolonged by 2×normal.

Test [4] addresses T3, Human thrombin (Homo sapiens, UniProt P00734).
T3 construct: converts prothrombin (II) to thrombin (IIa); purchased Calbiochem, La Jolla, Calif
Description: Thrombin assay (chromogenic substrate). The note with it: reported only as less than or greater than 30 uM; read-out: Thrombin (II) IC50. How it is done: Percent inhibition of thrombin activity is calculated from OD405 nm value from the experimental and control sample.
as §1

T2 sequence (P00742 235-488 limits assumed): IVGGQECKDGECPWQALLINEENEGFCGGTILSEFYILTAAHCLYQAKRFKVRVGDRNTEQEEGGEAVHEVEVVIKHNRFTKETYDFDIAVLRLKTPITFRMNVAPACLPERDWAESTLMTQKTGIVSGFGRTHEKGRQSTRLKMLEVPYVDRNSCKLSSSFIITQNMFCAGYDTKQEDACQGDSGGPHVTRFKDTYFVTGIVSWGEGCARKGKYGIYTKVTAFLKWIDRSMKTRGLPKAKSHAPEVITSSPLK
T2 sequence (P00742 41-179 limits assumed): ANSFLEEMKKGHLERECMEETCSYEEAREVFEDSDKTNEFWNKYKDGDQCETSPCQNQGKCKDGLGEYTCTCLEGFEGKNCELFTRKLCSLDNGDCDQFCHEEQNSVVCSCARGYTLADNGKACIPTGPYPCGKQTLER
T1 sequence (P08709 213-466 limits assumed): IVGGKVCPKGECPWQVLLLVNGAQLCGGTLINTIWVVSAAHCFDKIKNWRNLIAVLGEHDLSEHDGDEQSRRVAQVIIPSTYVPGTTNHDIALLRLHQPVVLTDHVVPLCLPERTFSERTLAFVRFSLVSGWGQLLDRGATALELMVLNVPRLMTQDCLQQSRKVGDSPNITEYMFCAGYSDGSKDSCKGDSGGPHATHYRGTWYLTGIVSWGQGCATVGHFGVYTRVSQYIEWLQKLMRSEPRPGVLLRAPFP
T1 sequence (P08709 61-212 limits assumed): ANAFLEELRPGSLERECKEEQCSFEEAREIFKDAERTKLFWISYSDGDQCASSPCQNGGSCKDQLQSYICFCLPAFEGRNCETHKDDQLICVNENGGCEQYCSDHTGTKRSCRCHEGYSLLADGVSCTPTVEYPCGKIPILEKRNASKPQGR
T1 sequence (P13726 33-251 partner limits assumed): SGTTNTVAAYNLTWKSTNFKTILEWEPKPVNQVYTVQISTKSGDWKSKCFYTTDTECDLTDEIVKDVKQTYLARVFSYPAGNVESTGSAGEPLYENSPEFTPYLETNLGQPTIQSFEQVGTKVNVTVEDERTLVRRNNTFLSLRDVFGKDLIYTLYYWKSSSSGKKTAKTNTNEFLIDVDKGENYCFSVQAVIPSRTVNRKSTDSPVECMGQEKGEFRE

Consider `CC(C)Nc1ncc(-c2cc(N)cc(C(=O)NC(C)c3ccccc3)c2)n(CC(=O)NCc2ccc(C(=N)N)cc2)c1=O` (racemic) [Example 56], for which the IC50 in test [1] is below 0.1 µM; in test [2] it was above 30 µM; in test [4] it was below 30 µM. In test [3], the “PT (Prothrombin time) 2xPT” value was below 50.0 µM.
With `CC(C)Nc1nc(Br)c(-c2cc(N)cc(C(=O)O)c2)n(CC(=O)NCc2ccc(C(=N)N)cc2)c1=O` [Example 3, 3-Amino-5-[1-[2-({4-[amino(imino)methyl]benzyl}amino)-2-oxoethyl]-3-bromo-5-(isopropylamino)-6-oxo-1,6-dihydropyrazin-2-yl]benzoic Acid], the IC50 is below 0.1 µM in test [1] and above 30 µM in test [2]. In test [3], the “PT (Prothrombin time) 2xPT” value is below 50.0 µM.
On to `COC(=O)c1cc(N)cc(-c2c(Br)nc(NC(C)C)c(=O)n2CC(=O)NCc2ccc(C(=N)N)cc2)c1` [Example 4, Methyl 3-amino-5-[1-[2-({4-[amino(imino)methyl]benzyl}amino)-2-oxoethyl]-3-bromo-5-(isopropylamino)-6-oxo-1,6-dihydropyrazin-2-yl]benzoate], for which the IC50 in test [1] is below 0.1 µM; in test [2], above 30 µM; in test [4], above 30 µM. Further, the “PT (Prothrombin time) 2xPT” value in test [3] is above 50.0 µM.
As to `CC(C)CCNC(=O)c1cc(N)cc(-c2cnc(NC(C)C)c(=O)n2CC(=O)NCc2ccc(C(=N)N)cc2)c1.O=C(O)C(F)(F)F.O=C(O)C(F)(F)F` [Example 6], the values for the IC50 in test [1], in test [2] and in test [4] were below 0.1 µM, above 30 µM and above 30 µM, respectively. Also, the “PT (Prothrombin time) 2xPT” value in test [3] is below 50.0 µM.
Take `CCC(C)NC(=O)c1cc(N)cc(-c2cnc(NC(C)C)c(=O)n2CC(=O)NCc2ccc(C(=N)N)cc2)c1.O=C(O)C(F)(F)F.O=C(O)C(F)(F)F` (stereo not drawn) [Example 7]: the IC50 was below 0.1 µM in test [1], above 30 µM in test [2] and below 30 µM in test [4]. Further, in test [3], the “PT (Prothrombin time) 2xPT” value is below 50.0 µM.
Regarding `CC(C)Nc1ncc(-c2cc(N)cc(C(=O)NCc3cccc(C(F)(F)F)c3)c2)n(CC(=O)NCc2ccc(C(=N)N)cc2)c1=O.O=C(O)C(F)(F)F.O=C(O)C(F)(F)F` [Example 10], the half-inhibitory concentration (IC50) in test [1] is below 0.1 µM; in test [2], above 30 µM; in test [4], above 30 µM. In test [3], the “PT (Prothrombin time) 2xPT” value is below 50.0 µM.
For `CC(C)Nc1ncc(-c2cc(N)cc(C(=O)NC3CCC3)c2)n(CC(=O)NCc2ccc(C(=N)N)cc2)c1=O.O=C(O)C(F)(F)F.O=C(O)C(F)(F)F` [Example 15], the IC50 was below 0.1 µM in test [1], above 30 µM in test [2] and below 30 µM in test [4]. In test [3], the “PT (Prothrombin time) 2xPT” value is below 50.0 µM.
For `CC(C)Nc1ncc(-c2cc(N)cc(C(=O)O)c2)n(CC(=O)NCc2ccc(C(=N)N)cc2)c1=O` [Example 16, 3-amino-5-[1-[2-({4-[amino(imino)methyl]benzyl}amino)-2-oxoethyl]-5-(isopropylamino)-6-oxo-1,6-dihydropyrazin-2-yl]benzoic Acid Trifluoracetate], the “PT (Prothrombin time) 2xPT” value in test [3] was below 50.0 µM.
On to `CC(C)Nc1ncc(-c2cc(N)cc(C(F)(F)F)c2)n(CC(=O)NCc2ccc(C(=N)N)cc2)c1=O` [Example 18], for which the figures for the IC50 in test [1], in test [2] and in test [4] were below 0.1 µM, above 30 µM and above 30 µM, respectively. Besides, in test [3], the “PT (Prothrombin time) 2xPT” value was below 50.0 µM.
As to `CC(C)Nc1ncc(-c2cc(N)cc(C(=O)NCc3cccc(F)c3)c2)n(CC(=O)NCc2ccc(C(=N)N)cc2)c1=O.O=C(O)C(F)(F)F.O=C(O)C(F)(F)F` [Example 29], the “PT (Prothrombin time) 2xPT” value in test [3] was below 50.0 µM.
Take `CC[C@H](C)NC(=O)c1cc(N)cc(-c2cnc(NC(C)C)c(=O)n2CC(=O)NCc2ccc(C(=N)N)cc2)c1` [Example 71]: the “PT (Prothrombin time) 2xPT” value in test [3] is below 50.0 µM. Besides, the 50% inhibitory concentration (IC50) in test [4] was below 30 µM.
`CCC(C)NC(=O)c1cc(N)cc(-c2cnc(NC(C)C)c(=O)n2CC(=O)NCc2ccc(C(=N)N)c(O)c2)c1` (stereo not drawn) [Example 115]: in test [1], the IC50 was below 0.1 µM. Moreover, the “PT (Prothrombin time) 2xPT” value in test [3] was below 50.0 µM.
Consider `CC(C)Nc1ncc(-c2cc(N)cc(N)c2)n(CC(=O)NCc2cc(O)c(C(=N)N)c(F)c2)c1=O.O=C(O)C(F)(F)F` [Example 117], for which the “PT (Prothrombin time) 2xPT” value in test [3] was below 50.0 µM.
For the compound `CCCCNc1cc(N)cc(-c2cnc(NC(C)C)c(=O)n2CC(=O)NCc2ccc(C(=N)N)cc2)c1.O=C(O)C(F)(F)F.O=C(O)C(F)(F)F` [Example 145], the IC50 in test [1] was below 0.1 µM. Moreover, in test [3], the “PT (Prothrombin time) 2xPT” value is below 50.0 µM.
In the same order, the values of `CC(C)Nc1ncc(-c2cc(N)cc(NCC3CCNCC3)c2)n(CC(=O)NCc2ccc(C(=N)N)cc2)c1=O.O=C(O)C(F)(F)F.O=C(O)C(F)(F)F` [Example 146] are below 0.1 µM and below 50.0 µM.
In the same order, the values of `CC(C)Nc1ncc(-c2cc(N)cc(NCC3CCCNC3)c2)n(CC(=O)NCc2ccc(C(=N)N)cc2)c1=O.O=C(O)C(F)(F)F.O=C(O)C(F)(F)F` (stereo not drawn) [Example 147] are below 0.1 µM and below 50.0 µM.
In the same order, the values of `CC(C)Nc1ncc(-c2cc(N)cc(NC3CCCC3)c2)n(CC(=O)NCc2ccc(C(=N)N)cc2)c1=O.O=C(O)C(F)(F)F.O=C(O)C(F)(F)F` [Example 148] are below 0.1 µM and below 50.0 µM.
For `CC(C)Nc1ncc(-c2cc(N)cc(NCC(C)(C)C)c2)n(CC(=O)NCc2ccc(C(=N)N)cc2)c1=O.O=C(O)C(F)(F)F.O=C(O)C(F)(F)F` [Example 152], in test [3], the “PT (Prothrombin time) 2xPT” value is below 50.0 µM.
Same read-out and setting: for `CC(C)Nc1ncc(-c2cc(N)cc(NCCC(C)(C)C)c2)n(CC(=O)NCc2ccc(C(=N)N)cc2)c1=O.O=C(O)C(F)(F)F.O=C(O)C(F)(F)F` [Example 153] the value was below 50.0 µM; for `CC(C)Nc1ncc(-c2cc(N)cc(C(F)(F)F)c2)n(CC(=O)NCc2ccc(C(=N)N)c(F)c2)c1=O.Cl` [Example 154, N-{4-[amino(imino)methyl]-3-fluorobenzyl}-2-[6-[3-amino-5-(trifluoromethyl)phenyl]-3-(isopropylamino)-2-oxopyrazin-1 (2H)-yl]acetamide], above 50.0 µM.
For `CC(C)Nc1nc(Cl)c(-c2cc(N)cc(O)c2)n(CC(=O)NCc2ccc(C(=N)N)cc2)c1=O.O=C(O)C(F)(F)F` [Example 178], the IC50 was below 0.1 µM in test [1] and above 30 µM in test [2]. Also, in test [3], the “PT (Prothrombin time) 2xPT” value was below 50.0 µM.
In the case of `CC[C@H](C)NC(=O)c1cc(N)cc(-c2cnc(NC3CC3)c(=O)n2CC(=O)NCc2ccc(C(=N)N)cc2)c1.O=C(O)C(F)(F)F.O=C(O)C(F)(F)F` [Example 184], the “PT (Prothrombin time) 2xPT” value in test [3] was below 50.0 µM. In test [4], the IC50 was below 30 µM.
Take `CC(C)Nc1ncc(-c2cc(N)c3[nH]ccc3c2)n(CC(=O)NCc2ccc(C(=N)N)cc2)c1=O.O=C(O)C(F)(F)F.O=C(O)C(F)(F)F` [Example 249]: the IC50 in test [1] was below 0.1 µM; in test [4], above 30 µM. For the same compound, the “PT (Prothrombin time) 2xPT” value in test [3] is below 50.0 µM.
In the same order, the values of `N=C(N)c1ccc(CNC(=O)Cn2c(-c3cc(N)cc(C(=O)OCc4ccccc4)c3)cnc(NC3CC3)c2=O)cc1.O=C(O)C(F)(F)F` [Example 251] are below 0.1 µM, above 30 µM and below 50.0 µM.
As to `CC[C@@H](C)NC(=O)c1cc(N)cc(-c2cnc(NC(C)C)c(=O)n2CC(=O)NCc2ccc(C(=N)N)c(O)c2)c1.O.O.O=C(O)C(F)(F)F` [Example 254], the IC50 in test [1] is below 0.1 µM; in test [4], above 30 µM. The “PT (Prothrombin time) 2xPT” value in test [3] was below 50.0 µM.
